From ChEMBL document CHEMBL1130322, “Anticancer and antiviral effects and inactivation of S-adenosyl-L-homocysteine hydrolase with 5'-carboxaldehydes and oximes synthesized from adenosine and sugar-modified analogues” (J Med Chem, 1997)
In brackets after ≈: the same amount, converted by molar mass.

Tests used:
Vero [1] = assay: cells; conditions: Chlorocebus sabaeus
HEL [2] = assay: (§1) 50% Cytostatic concentration required to inhibit human erythroleukemic (HEL) cell proliferation; type: functional
FM3A = assay: cells; conditions: Mus musculus
Human alphaherpesvirus 2 = assay: microbe, parasite or virus in culture
Vero [3] = assay: cells; conditions: Chlorocebus sabaeus; remark: listed apart in the source
Vero [4] = assay: cells; conditions: Chlorocebus sabaeus; remark: listed apart in the source
L1210 = assay: cells; conditions: Mus musculus
Human betaherpesvirus 5 [5] = assay: microbe, parasite or virus in culture
MOLT-4 = assay: cells; conditions: Homo sapiens
Human betaherpesvirus 5 [6] = assay: microbe, parasite or virus in culture; remark: listed apart in the source
Vero [7] = assay: cells; conditions: Chlorocebus sabaeus; remark: listed apart in the source
E6SM = assay: Minimum inhibitory concentration required to effect a microscopically visible change of cell morphology in human embryonic skin-muscle (E6SM) cell culture.; type: functional; parameters: unit not given here
Vero [8] = assay: cells; conditions: Chlorocebus sabaeus; remark: listed apart in the source
Human alphaherpesvirus 1 [9] = assay: microbe, parasite or virus in culture
Human alphaherpesvirus 1 [10] = assay: microbe, parasite or virus in culture; remark: listed apart in the source
CCRF-CEM = assay: cells; conditions: Homo sapiens
Human alphaherpesvirus 1 [11] = assay: microbe, parasite or virus in culture; remark: listed apart in the source
HEL [12] = assay: as §1; type: functional; parameters: unit not given here
Vero [13] = assay: Minimum inhibitory concentration required to effect a microscopically visible change of cell morphology in Vero cell culture.; type: functional, Chlorocebus sabaeus; parameters: unit not given here
Adenosylhomocysteinase [14] = molecular target: T1, Adenosylhomocysteinase (Homo sapiens, UniProt P23526)
Target sequence in this assay (P23526 whole entry): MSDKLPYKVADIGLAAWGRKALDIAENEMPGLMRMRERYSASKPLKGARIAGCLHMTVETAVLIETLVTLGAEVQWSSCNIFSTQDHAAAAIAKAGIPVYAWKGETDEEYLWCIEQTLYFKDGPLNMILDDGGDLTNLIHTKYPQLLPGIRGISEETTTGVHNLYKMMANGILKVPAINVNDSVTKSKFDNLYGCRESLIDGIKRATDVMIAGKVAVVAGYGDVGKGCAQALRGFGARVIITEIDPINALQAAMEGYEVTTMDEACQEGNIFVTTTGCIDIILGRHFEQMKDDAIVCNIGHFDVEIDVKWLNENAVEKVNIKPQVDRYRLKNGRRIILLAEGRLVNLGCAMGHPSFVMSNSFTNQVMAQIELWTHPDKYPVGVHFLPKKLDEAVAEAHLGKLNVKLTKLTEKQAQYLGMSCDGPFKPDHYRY

HeLa [15] = assay: cells; conditions: Homo sapiens
MDCK [16] = assay: cells; conditions: Canis lupus familiaris
Adenosylhomocysteinase [17] = molecular target: T1, Adenosylhomocysteinase; remark: listed apart in the source
Target sequence in this assay (P23526 2-432 limits assumed): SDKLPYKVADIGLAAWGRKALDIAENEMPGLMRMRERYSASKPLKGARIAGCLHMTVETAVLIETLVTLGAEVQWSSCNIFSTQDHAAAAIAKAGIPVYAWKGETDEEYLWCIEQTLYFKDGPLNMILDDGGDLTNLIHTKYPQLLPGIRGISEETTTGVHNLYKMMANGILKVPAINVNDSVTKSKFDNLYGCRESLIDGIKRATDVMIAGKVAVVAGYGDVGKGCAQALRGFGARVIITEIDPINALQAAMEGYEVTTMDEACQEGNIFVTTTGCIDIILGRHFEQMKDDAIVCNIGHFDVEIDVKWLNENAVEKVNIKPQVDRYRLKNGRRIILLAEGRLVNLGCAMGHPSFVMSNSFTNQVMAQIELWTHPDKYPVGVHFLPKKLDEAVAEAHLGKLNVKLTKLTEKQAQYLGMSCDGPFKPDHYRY

HeLa [18] = assay: cells; conditions: Homo sapiens; remark: listed apart in the source
Vero [19] = assay: cells; conditions: Chlorocebus sabaeus; remark: listed apart in the source
[20] = tested on: Respiratory syncytial virus; assay: microbe, parasite or virus in culture; conditions: human respiratory syncytial virus, HeLa
MDCK [21] = assay: cells; conditions: Canis lupus familiaris; remark: listed apart in the source
MDCK [22] = type: functional, Canis lupus familiaris; parameters: unit not given here
HeLa [23] = assay: Minimum inhibitory concentration required to effect a microscopically visible change of cell morphology in HeLa cell culture.; type: functional, Homo sapiens; parameters: unit not given here
Human alphaherpesvirus 1 [24] = assay: microbe, parasite or virus in culture; remark: listed apart in the source
Human alphaherpesvirus 1 [25] = assay: microbe, parasite or virus in culture; remark: listed apart in the source
Human alphaherpesvirus 1 [26] = assay: microbe, parasite or virus in culture; remark: listed apart in the source

Structure (SMILES) | EC50 (Vero [1]) | IC50 (FM3A) | EC50 (Human alphaherpesvirus 2) | EC50 (Vero [3]) | EC50 (Vero [4]) | IC50 (L1210) | EC50 (Human betaherpesvirus 5 [5]) | IC50 (MOLT-4) | EC50 (Human betaherpesvirus 5 [6]) | EC50 (Vero [7]) | MIC (E6SM) | EC50 (Vero [8]) | EC50 (Human alphaherpesvirus 1 [9]) | EC50 (Human alphaherpesvirus 1 [10]) | IC50 (CCRF-CEM) | EC50 (Vaccinia virus) | EC50 (Human alphaherpesvirus 1 [11]) | CC50 (HEL [12]) | Ki (Adenosylhomocysteinase [14]) | k2 (Adenosylhomocysteinase [17]) | other results
Nc1ncnc2c1ncn2[C@@H]1O[C@H](C=NO)[C@@H](O)[C@@H]1O | > 40 µg/mL | 12.7 µg/mL (≈ 45.3 µM) | > 100 µg/mL | > 40 µg/mL | > 100 µg/mL | 10.5 µg/mL (≈ 37.5 µM) | > 10 µg/mL | 16.4 µg/mL (≈ 58.5 µM) | > 10 µg/mL | > 40 µg/mL | >200 | > 40 µg/mL | 70 µg/mL (≈ 250 µM) | > 100 µg/mL | 15 µg/mL (≈ 53.5 µM) | 20 µg/mL (≈ 71.4 µM) | 70 µg/mL (≈ 250 µM) | – | – | – | CC50 (HEL [2]): 34
Nc1ncnc2c1ncn2C1O[C@H](/C=N/OCc2ccccc2)[C@@H](O)[C@H]1O (stereo partly specified) | > 100 µg/mL | 340 µg/mL (≈ 918 µM) | > 40 µg/mL | > 100 µg/mL | > 40 µg/mL | 187 µg/mL (≈ 505 µM) | > 10 µg/mL | 118 µg/mL (≈ 319 µM) | > 10 µg/mL | > 100 µg/mL | 100 | > 100 µg/mL | > 40 µg/mL | > 40 µg/mL | 136 µg/mL (≈ 367 µM) | 2 µg/mL (≈ 5.4 µM) | > 40 µg/mL | 33 | 101 nM | 0.036 min⁻¹ | MIC (Vero [13]): >200; EC50 (HeLa [15]): > 200 µg/mL; EC50 (MDCK [16]): 20 µg/mL (≈ 54 µM); EC50 (HeLa [18]): > 200 µg/mL; EC50 (Vero [19]): > 100 µg/mL; EC50 [20]: > 200 µg/mL; EC50 (MDCK [21]): 20 µg/mL (≈ 54 µM); MIC (MDCK [22]): 100; MIC (HeLa [23]): >200
Nc1ncnc2c1ncn2C1CC(O)C(C=O)O1 (stereo unspecified) | > 200 µg/mL | 50.9 µg/mL (≈ 204 µM) | > 400 µg/mL | 70 µg/mL (≈ 281 µM) | > 400 µg/mL | 6.64 µg/mL (≈ 26.6 µM) | > 40 µg/mL | 4.96 µg/mL (≈ 19.9 µM) | > 40 µg/mL | > 200 µg/mL | >400 | > 200 µg/mL | > 400 µg/mL | > 400 µg/mL | 17.8 µg/mL (≈ 71.4 µM) | > 400 µg/mL | > 400 µg/mL | >50 | – | – | –
Nc1ncnc2c1ncn2[C@@H]1O[C@H](C=NO)[C@@H](O)[C@H]1O | > 1 µg/mL | 2.3 µg/mL (≈ 8.21 µM) | > 4 µg/mL | > 1 µg/mL | > 1 µg/mL | 1.8 µg/mL (≈ 6.42 µM) | 0.25 µg/mL (≈ 0.892 µM) | 5.4 µg/mL (≈ 19.3 µM) | 0.3 µg/mL (≈ 1.07 µM) | > 0.4 µg/mL | 7 | > 0.4 µg/mL | > 4 µg/mL | > 4 µg/mL | 2.9 µg/mL (≈ 10.3 µM) | > 4 µg/mL | > 4 µg/mL | – | 670 nM | 0.16 min⁻¹ | MIC (Vero [13]): >1; CC50 (HEL [2]): 0.7; EC50 (HeLa [15]): > 40 µg/mL; EC50 (MDCK [16]): > 0.8 µg/mL; EC50 (HeLa [18]): > 4 µg/mL; EC50 (Vero [19]): > 0.4 µg/mL; EC50 [20]: < 4 µg/mL; EC50 (MDCK [21]): 0.8 µg/mL (≈ 2.85 µM); MIC (MDCK [22]): 0.8; MIC (HeLa [23]): >4
O=c1[nH]c(=O)n([C@H]2C[C@H](O)[C@@H](CO)O2)cc1/C=C/Br [BRIVUDINE] | > 400 µg/mL | – | – | > 400 µg/mL | > 400 µg/mL | – | > 40 µg/mL | – | > 40 µg/mL | > 400 µg/mL | >400 | > 400 µg/mL | – | – | – | 0.7 µg/mL (≈ 2.1 µM) | 0.04 µg/mL (≈ 0.12 µM) | >40 | – | – | EC50 (Human alphaherpesvirus 1 [24]): 10 µg/mL (≈ 30 µM); EC50 (Human alphaherpesvirus 1 [25]): > 400 µg/mL; EC50 (Human alphaherpesvirus 1 [26]): > 400 µg/mL
Nc1ncnc2c1ncn2[C@@H]1O[C@@H](C=NO)[C@@H](O)[C@H]1O | – | – | – | – | – | – | – | – | – | – | – | – | – | – | – | – | – | – | 224 nM | 0.13 min⁻¹ | –
Nc1ncnc2c1ncn2C1OC(/C=N/O)CC1O (stereo unspecified) | 300 µg/mL (≈ 1140 µM) | > 200 µg/mL | > 400 µg/mL | > 400 µg/mL | > 400 µg/mL | 180 µg/mL (≈ 681 µM) | 10 µg/mL (≈ 37.8 µM) | > 200 µg/mL | 40 µg/mL (≈ 151 µM) | > 400 µg/mL | >400 | > 400 µg/mL | > 400 µg/mL | > 400 µg/mL | 185 µg/mL (≈ 700 µM) | 300 µg/mL (≈ 1140 µM) | > 400 µg/mL | >50 | – | – | –
Nc1ncnc2c1ncn2C1OC(C=O)CC1O (stereo unspecified) | > 200 µg/mL | > 200 µg/mL | > 400 µg/mL | > 400 µg/mL | > 400 µg/mL | > 200 µg/mL | > 40 µg/mL | > 200 µg/mL | > 40 µg/mL | > 200 µg/mL | >400 | > 200 µg/mL | > 400 µg/mL | > 100 µg/mL | > 200 µg/mL | > 400 µg/mL | > 400 µg/mL | >50 | – | – | –
